Test results reported in patent publication US20030073832A1, “Novel aminophenyl ketone derivatives” (priority 2001, published 2003).

What was measured:
[1] = test system: IL-1β; test: Inhibition of IL-1β secretion from LPS stimulated peripheral blood mononuclear cells; format: cell-based; details: PBMC; LPS stimulated human peripheral blood mononuclear cells, 18 hours, ELISA; read-out: The median inhibition concentration (IC50, nM) of IL-1β
Description: (§1) To study the effect of compounds of the present invention in vitro the inhibition of the IL-1β and TNF-α secretion was measured using the following procedure:
(§2) Cytokine production was measured in the media from lipopolysaccharide (LPS) stimulated peripheral blood mononuclear cells. The mononuclear cells were isolated from human peripheral blood by Lymphoprep® (Nycomed, Norway) fractionation and suspended in RPMI 1640 (growth medium) with foetal calf serum (FCS, 2%), at a concentration of 5×10^5 cells/ml. The cells were incubated in 24-well tissue culture plates in 1 ml aliquots. Test compounds were dissolved in dimethylsulfoxide (DMSO, 10 mM) and were diluted with the medium. Compounds were added to the cells for 30 minutes, then LPS ([…] final concentration) was added. The plates were incubated for 18 hours, and the concentration of IL-1β and TNF-α in the medium was determined by enzyme-linked immunosorbent assays. The median inhibitory concentrations (IC50) of the compounds were calculated.

[2] = test system: TNF-α; test: Inhibition of TNF-α secretion from LPS stimulated peripheral blood mononuclear cells; format: cell-based; details: PBMC; LPS stimulated human peripheral blood mononuclear cells, 18 hours, ELISA; read-out: The median inhibition concentration (IC50, nM) of TNF-α
Description: as §1, §2

[3] = test system: PMN-superoxide; test: Inhibition of PMN superoxide secretion (ferricytochrome C reduction); format: cell-based; details: human PMN granulocytes primed with TNF-α, stimulated with fMLP; read-out: The median inhibition concentration (IC50, nM) of PMN-superoxide
Description: The compounds of the present invention also show similar activities in the ability to inhibit PMN (polymorphonuclear) superoxide secretion which is also indicative of potentially useful anti-inflammatory drugs. The compounds were tested using the following procedure:
Human polymorphonuclear (PMN) granulocytes were isolated from human blood by dextran sedimentation, Lymphoprep® fractionation and hypotonic lysis of contaminating erythrocytes.
Superoxide anion generation was measured as the superoxide dismutase inhibitable reduction of ferricytochrome C (Madhu, S.B. et al, Inflammation, 16, 241, (1992)). The cells were suspended in Hanks' balanced salt solution, and incubated for 10 minutes at 37° C. with test compounds. The cells were primed by the addition of TNF-α (3 ng/ml final concentration) for 10 minutes, and then ferricytochrome C, (final concentration 750 μg/ml), bovine serum albumin (BSA, final concentration 1 mg/ml) and formyl-methionyl-leucyl-phenylalanine (fMLP, final concentration 10^−7 M) were added for 3 minutes. The cells were chilled on ice, and were spun down. The optical densities in the cell-free supernatant was measured in a spectrophotometer. The median inhibitory concentration (IC50) of the compounds was calculated.

[4] = target: T1, p38α MAP kinase (Homo sapiens, UniProt Q16539); test: p38α MAP kinase assay; format: biochemical; details: immunoprecipitated activated FLAG-p38α from COS-1 cells, GST-ATF-2 substrate; read-out: p38 MAP kinase IC50
T1 construct: made in house; host or cells: COS-1 cells (transient co-transfection, anti-FLAG immunoprecipitation)
T1 sequence (Q16539 whole entry): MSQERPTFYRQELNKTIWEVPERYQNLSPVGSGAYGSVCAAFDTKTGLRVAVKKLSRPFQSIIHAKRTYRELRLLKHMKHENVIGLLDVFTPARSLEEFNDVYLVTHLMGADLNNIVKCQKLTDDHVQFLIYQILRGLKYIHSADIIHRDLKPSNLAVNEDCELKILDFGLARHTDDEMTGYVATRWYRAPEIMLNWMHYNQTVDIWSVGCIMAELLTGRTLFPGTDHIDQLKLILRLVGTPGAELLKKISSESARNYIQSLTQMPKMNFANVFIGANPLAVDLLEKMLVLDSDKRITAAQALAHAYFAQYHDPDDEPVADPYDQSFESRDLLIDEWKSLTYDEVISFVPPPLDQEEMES
Description: COS-1 cells (derived from African green monkey kidney fibroblast-like cell containing wild-type T antigen under control of the SV40 promotor) were obtained from ATCC (ATCC no. CRL-1650) and grown in growth medium (DMEM without phenolred, 10% FCS, 2 mM L-glutamine, 100U penicillin and 100 μg streptomycin/ml) at 37° C. with 5% CO2. The cells were passaged twice a week by trypsination (0.25% trypsin, 1 mM EDTA in PBS) and were split 1:10. The medium was changed every second or third day. The cell line was regularly tested with the Mycoplasma PCR Primer Set (Stratagene) and found to be free of Mycoplasma. Tissue culture media, FCS, L-glutamine and penicilin and streptomycin are from Bribco BRL, Gaithersburg, Md., USA.
Transient Expression of COS-1 Cells
On day one COS-1 cells were seeded in 143 cm^2 petridish with a density of 2×10^4celler/cm^2 in growth medium. At day 2 the cells were co-transfected with 5 μg (total) of experimental plasmid DNA, expressing the FLAG-p38α and FLAG-MKK6(EE). The plasmids were introduced into the COS-1 cells in serum-free medium using DOTAP™ (Boehringer-Mannheim, Mannheim, Germany). Plasmid DNA was prepared and purified using the QIAGEN EndoToxin-free Maxiprep-500 kit (Hilden, Germany). Briefly, DNA and DOTAP™ were mixed for exactly 15 min. at 37° C. in the CO2 incubator. […]

IC50 [1] [nM]	IC50 [2] [nM]	IC50 [3] [nM]	IC50 [4] [nM]	SMILES
72	17	6.3	93.3	Cc1ccccc1Nc1ccc(C(=O)c2sccc2Cl)c(Cl)c1 [Compound 101, 4-(2-tolylamino)-2-chlorophenyl 3-chloro-2-thienyl ketone]
13	7.1	5		Cc1ccccc1C(=O)c1ccc(Nc2ccccc2N)cc1Cl [Ref. comp., 4-(2-aminophenylamino)-2-chloro-2′-methylbenzophenone, reference compound]
